The values below come from article PMC12139501, “Acetyl-11-keto-β-boswellic acid alleviates hepatic metabolic dysfunction by inhibiting MGLL activity” (Journal of Lipid Research, 2025).

Molecules are shown by their SMILES.

Test [1] has as its target T1, monoacylglycerol lipase (MGLL) (Mus musculus, UniProt O35678).
T1 sequence (O35678 1-303): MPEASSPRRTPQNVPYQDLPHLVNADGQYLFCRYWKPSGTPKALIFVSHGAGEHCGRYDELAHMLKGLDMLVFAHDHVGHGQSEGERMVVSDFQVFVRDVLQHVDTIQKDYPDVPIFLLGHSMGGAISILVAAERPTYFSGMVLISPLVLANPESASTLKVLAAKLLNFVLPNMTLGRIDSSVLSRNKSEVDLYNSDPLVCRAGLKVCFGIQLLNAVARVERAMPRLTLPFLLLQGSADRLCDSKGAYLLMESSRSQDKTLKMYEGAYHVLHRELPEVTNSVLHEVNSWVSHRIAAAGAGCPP
Description: LC-MS 2-oleoylglycerol hydrolysis assay in hepatocyte lysate, […]. Type of test: cell-based. Also on record: endogenous or adenovirus-overexpressed MGLL in primary hepatocyte homogenate.

The target of test [2] is T1, monoacylglycerol lipase (MGLL). Description: ITC with purified MGLL; supported by pull-down and LC-MS activity assay in hepatocyte lysate. Type of test: binding. Further details: N-terminal 6×His fusion protein of the mouse MGLL domain.

Consider `COC(=O)[C@]1(C)CC[C@]2(C)CC[C@]3(C)C4=CC=C5C(=CC(=O)C(O)=C5C)[C@]4(C)CC[C@@]3(C)[C@@H]2C1` [pristimerin], for which the “LC-MS 2-oleoylglycerol hydrolysis assay in hepatocyte lysate, 50 μM” value in test [1] was “both AKBA and pristimerin significantly reduced MGLL activity in wild-type primary hepatocytes as well as in those overexpressing MGLL”.

The Kd is the free concentration of one partner at which half of the binding sites on the other are occupied at equilibrium, for simple one-to-one binding. Compound `CC(=O)O[C@@H]1CC[C@@]2(C)[C@@H](CC[C@]3(C)[C@@H]2C(=O)C=C2[C@@H]4[C@@H](C)[C@H](C)CC[C@]4(C)CC[C@]23C)[C@@]1(C)C(=O)O` [AKBA] came in with a Kd in test [2] of 40.6 µM. In other words, the double-digit micromolar range.
